Measured values: patent US7132252B2, “Methods for detecting the interaction of compounds with cytochrome P450 using optical molecular sensors” (Invitrogen Corporation, priority 1998, dated 2006)
Where “and” joins values, the source holds several entries; their conditions need not be identical. Identical values can stand only once.

Key:
CYP3A4 [1] = molecular target: T1, CYP3A4 (Homo sapiens, UniProt P08684); assay: Kinetic properties of fluorogenic substrates with CYP 3A4; type: biochemical; settings: for v (1.25 uM): turnover rate at 1.25 uM substrate; for v (10 uM): turnover rate at 10 uM substrate
T1 sequence (P08684 whole entry): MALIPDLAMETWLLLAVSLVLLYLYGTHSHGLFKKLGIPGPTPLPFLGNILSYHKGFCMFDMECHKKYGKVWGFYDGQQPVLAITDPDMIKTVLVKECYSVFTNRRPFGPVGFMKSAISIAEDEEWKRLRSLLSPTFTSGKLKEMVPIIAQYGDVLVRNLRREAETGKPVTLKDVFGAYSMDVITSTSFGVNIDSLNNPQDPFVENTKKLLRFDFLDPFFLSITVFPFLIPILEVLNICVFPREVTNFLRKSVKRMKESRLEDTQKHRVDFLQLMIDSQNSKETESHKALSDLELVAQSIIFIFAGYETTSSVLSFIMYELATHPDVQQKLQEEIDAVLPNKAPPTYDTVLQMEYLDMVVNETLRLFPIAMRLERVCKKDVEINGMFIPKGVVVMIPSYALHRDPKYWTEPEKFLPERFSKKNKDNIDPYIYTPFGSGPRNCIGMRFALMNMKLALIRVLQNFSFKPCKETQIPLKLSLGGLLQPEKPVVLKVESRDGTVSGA
Source text: For further understanding these terms in the context of this invention, attention is directed to FIG. 4 and the analysis of FIG. 4.
(§1) (respectively, MFC and MR).

CYP2C19 [2] = molecular target: T2, CYP2C19 (Homo sapiens, UniProt P33261); assay: Kinetic properties of fluorogenic substrates with CYP 2C19; type: biochemical; settings: for v (1.25 uM): turnover rate at 1.25 uM substrate; for v (1.25 uM) / v (10 uM): — = too low to quantify; for v (10 uM): turnover rate at 10 uM substrate
T2 sequence (P33261 whole entry): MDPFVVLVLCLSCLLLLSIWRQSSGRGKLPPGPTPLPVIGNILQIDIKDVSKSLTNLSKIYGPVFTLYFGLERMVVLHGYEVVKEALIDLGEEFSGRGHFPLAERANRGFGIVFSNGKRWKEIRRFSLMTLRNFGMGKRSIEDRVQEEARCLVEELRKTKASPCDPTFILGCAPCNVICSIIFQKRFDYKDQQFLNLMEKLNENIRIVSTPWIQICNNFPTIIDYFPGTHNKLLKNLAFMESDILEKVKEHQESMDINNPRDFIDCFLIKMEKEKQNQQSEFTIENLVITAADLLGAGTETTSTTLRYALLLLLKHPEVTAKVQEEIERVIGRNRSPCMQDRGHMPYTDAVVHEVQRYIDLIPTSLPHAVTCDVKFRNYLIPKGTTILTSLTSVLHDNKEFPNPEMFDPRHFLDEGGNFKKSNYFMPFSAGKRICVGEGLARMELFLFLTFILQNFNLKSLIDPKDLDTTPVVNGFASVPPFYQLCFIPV

CYP2C9 [3] = molecular target: T3, CYP2C9 (Homo sapiens, UniProt P11712); assay: Kinetic properties of fluorogenic substrates with CYP 2C9; type: biochemical; settings: for v (1.25 uM): turnover rate at 1.25 uM substrate; for v (10 uM): turnover rate at 10 uM substrate
T3 sequence (P11712 whole entry): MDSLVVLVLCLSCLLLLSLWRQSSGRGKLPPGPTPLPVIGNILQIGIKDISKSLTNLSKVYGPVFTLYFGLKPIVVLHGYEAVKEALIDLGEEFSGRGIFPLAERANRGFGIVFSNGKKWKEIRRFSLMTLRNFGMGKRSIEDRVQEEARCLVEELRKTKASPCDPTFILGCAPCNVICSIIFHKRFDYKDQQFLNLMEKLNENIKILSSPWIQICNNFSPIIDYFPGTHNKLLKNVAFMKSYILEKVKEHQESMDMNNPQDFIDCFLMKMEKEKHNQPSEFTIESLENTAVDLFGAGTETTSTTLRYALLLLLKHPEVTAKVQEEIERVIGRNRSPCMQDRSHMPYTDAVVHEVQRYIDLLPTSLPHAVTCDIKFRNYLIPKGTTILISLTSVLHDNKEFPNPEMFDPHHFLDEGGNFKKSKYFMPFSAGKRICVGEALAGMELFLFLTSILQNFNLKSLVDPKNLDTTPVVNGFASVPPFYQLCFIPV

CYP 2B6 = molecular target: T4, CYP 2B6 (Homo sapiens, UniProt P20813); assay: Kinetic properties of fluorogenic substrates with CYP 2B6; type: biochemical
T4 sequence (P20813 1-491): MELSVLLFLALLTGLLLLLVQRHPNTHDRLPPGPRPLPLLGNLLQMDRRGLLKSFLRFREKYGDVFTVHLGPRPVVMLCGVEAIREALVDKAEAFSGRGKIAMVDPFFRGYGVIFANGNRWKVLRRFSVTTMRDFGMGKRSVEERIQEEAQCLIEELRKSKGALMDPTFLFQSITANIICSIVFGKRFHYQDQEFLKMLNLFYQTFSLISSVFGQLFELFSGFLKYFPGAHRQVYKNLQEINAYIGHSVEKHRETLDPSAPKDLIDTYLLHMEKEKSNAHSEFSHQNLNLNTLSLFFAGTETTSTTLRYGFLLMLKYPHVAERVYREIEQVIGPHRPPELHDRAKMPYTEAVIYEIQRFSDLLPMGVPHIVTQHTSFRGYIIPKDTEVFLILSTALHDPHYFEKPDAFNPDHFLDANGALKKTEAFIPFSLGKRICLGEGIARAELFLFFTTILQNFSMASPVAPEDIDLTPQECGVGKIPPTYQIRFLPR

CYP3A4 [4] = molecular target: T1, CYP3A4; assay: Fluorescence signal from enzymatic metabolism over reagent addition background, CYP3A4; type: biochemical; settings: BOMR vs benzylresorufin (FIG. 8); BOMCC vs BFC (FIG. 9)
Description: (§2) The assays were performed in a 96-well plate at room temperature and at a volume of 100 μl/well. […] (See Table 11.) The enzyme was made up in the appropriate K+ phosphate buffer at 10× and 10 μl/well was-added to the appropriate wells. (See Table 11.) The plate was read at 3 minute intervals for 12 minutes to obtain a background fluorescence levels. Readings were briefly interrupted to allow for the addition of 10 μl of 10×NADP+ in K+ phosphate buffer to each well. (See Table 11.) The readings were resumed at 3 minute intervals for another 12 minutes. […] To permit quantitative comparison between sensors that were or would be metabolized to yield fluorescent products of differing optical properties, the signal intensity corresponding to each well was normalized by division with the initial signal intensity (wells containing enzyme and buffer). […] The later increase in signal, approximately four minutes after the second addition and at later time points, is believed to be due to the enzymatic conversion of the substrate to the product. […] [table]

CYP2C9 [5] = molecular target: T3, CYP2C9; assay: Fluorescence signal from enzymatic metabolism over reagent addition background, CYP2C9; type: biochemical; settings: OOMR and BOMCC vs MFC (FIG. 11)
Description: as §2

CYP 1A2 = molecular target: T5, CYP 1A2 (Homo sapiens, UniProt P05177); assay: Kinetic properties of fluorogenic substrates with CYP 1A2; type: biochemical
T5 sequence (P05177 1-516): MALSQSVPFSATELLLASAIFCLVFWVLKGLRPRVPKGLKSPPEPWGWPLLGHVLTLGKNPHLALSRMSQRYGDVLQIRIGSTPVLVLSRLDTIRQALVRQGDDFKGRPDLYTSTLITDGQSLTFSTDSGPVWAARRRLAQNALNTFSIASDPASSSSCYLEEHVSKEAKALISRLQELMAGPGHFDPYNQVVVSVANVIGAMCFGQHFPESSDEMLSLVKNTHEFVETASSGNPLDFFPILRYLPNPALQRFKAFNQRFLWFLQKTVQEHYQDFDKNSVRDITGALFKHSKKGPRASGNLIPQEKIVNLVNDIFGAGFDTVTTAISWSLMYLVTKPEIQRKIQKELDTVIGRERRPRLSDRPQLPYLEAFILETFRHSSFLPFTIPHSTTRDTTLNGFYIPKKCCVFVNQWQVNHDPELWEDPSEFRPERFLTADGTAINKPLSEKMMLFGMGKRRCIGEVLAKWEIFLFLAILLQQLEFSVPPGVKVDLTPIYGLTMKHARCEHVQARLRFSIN

CYP2C19 [6] = molecular target: T2, CYP2C19; assay: Fluorescence signal from enzymatic metabolism over reagent addition background, CYP2C19; type: biochemical; settings: EOMCC vs CEC (FIG. 12)
Description: as §2

CYP2D6 [7] = molecular target: T6, CYP2D6 (Homo sapiens, UniProt P10635); assay: Kinetic properties of fluorogenic substrates with CYP 2D6; type: biochemical
T6 sequence (P10635 whole entry): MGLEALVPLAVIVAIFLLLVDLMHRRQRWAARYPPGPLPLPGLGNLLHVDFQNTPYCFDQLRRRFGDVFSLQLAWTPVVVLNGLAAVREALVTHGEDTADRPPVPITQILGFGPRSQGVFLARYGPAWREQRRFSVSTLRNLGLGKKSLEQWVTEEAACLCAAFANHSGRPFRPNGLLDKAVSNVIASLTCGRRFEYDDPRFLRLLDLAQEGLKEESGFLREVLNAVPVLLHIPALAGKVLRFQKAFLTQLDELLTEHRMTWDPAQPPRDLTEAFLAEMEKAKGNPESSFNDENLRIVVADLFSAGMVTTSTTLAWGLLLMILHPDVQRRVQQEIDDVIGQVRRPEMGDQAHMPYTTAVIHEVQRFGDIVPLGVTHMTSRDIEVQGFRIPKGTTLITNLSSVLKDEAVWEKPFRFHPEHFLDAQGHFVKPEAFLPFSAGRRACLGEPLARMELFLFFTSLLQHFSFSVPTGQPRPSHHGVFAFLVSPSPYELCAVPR
Source text: as §1

CYP2D6 [8] = molecular target: T6, CYP2D6; assay: Fluorescence signal from enzymatic metabolism over reagent addition background, CYP2D6; type: biochemical; settings: MOBFC vs AMMC (Gentest) (FIG. 10)
Description: as §2

[9] = Stability of substrate stock solution; type: physicochemical; settings: 10 mM in acetonitrile, stored at 4° C. in the dark
Description: Substrate stock solutions were stable when stored at 4° C. in the dark. 7-Hydroxy-4trifluoromethylcoumarin dye standard was prepared at 1 mM in DMSO. […] Control wells receive the appropriate inhibition controls for each isozyme. Also, inhibitors are added to wells that contain the dye standards to permit addition of substrate and enzyme to all wells of the plate. • 2. […] 30 μl/well Enzyme/Recycling System buffer was added.

CYP3A4 [10] = molecular target: T1, CYP3A4; assay: in vitro; settings: pH 8
Source text: Data for a product fluorescence standard calibration curve was generated in the following manner.

[11] = turnover rate at 1.25 uM substrate, — = too low to quantify
[12] = turnover rate at 10 uM substrate, — = too low to quantify

| SMILES | type of kinetics (CYP3A4 [1]) | v (1.25 uM) (CYP3A4 [1]; — = too low to quantify) | v (10 uM) (CYP3A4 [1]; — = too low to quantify) | type of kinetics (CYP2C19 [2]) | v (1.25 uM) (CYP2C19 [2]) | v (10 uM) (CYP2C19 [2]) | type of kinetics (CYP2C9 [3]) | v (1.25 uM) (CYP2C9 [3]; — = too low to quantify) | v (10 uM) (CYP2C9 [3]; — = too low to quantify) | signal to background versus prior commercially available substrate (CYP2C9 [5]) | further results |
| --- | --- | --- | --- | --- | --- | --- | --- | --- | --- | --- | --- |
| N#Cc1cc2ccc(OCOCc3ccccc3)cc2oc1=O [BOMCC, 7-Benzyloxymethyloxy-3-cyanocoumarin] | sigmoidal | 0.12 min⁻¹ | 0.98 min⁻¹ | Michaelis-Menten | 0.16 min⁻¹ | 0.68 min⁻¹ | Michaelis-Menten | 0.04 min⁻¹ | 0.42 min⁻¹ | superior signal to background | kcat (CYP3A4 [1]; ( ) = from Michaelis-Menten fit, — = too low to quantify): (10.0) min-1; type of kinetics (CYP 2B6): Michaelis-Menten; Km (CYP 2B6; human, CYP 2B6 isozyme, — = too low to quantify): 52 µM; v (1.25 uM) (CYP 2B6; [11]): 0.38 min⁻¹; v (10 uM) (CYP 2B6; [12]): 3.05 min⁻¹; kcat (CYP 2B6; — = too low to quantify): 1.1 s⁻¹; signal to background versus prior commercially available substrate (CYP3A4 [4]): superior signal to background |
| CCOCOc1ccc2cc(C#N)c(=O)oc2c1 [EOMCC] |  |  |  | Michaelis-Menten | 0.34 min⁻¹ | 2.22 min⁻¹ |  |  |  |  | type of kinetics (CYP 1A2): Michaelis-Menten; v (1.25 uM) (CYP 1A2; turnover rate at 1.25 uM substrate): 1.77 min⁻¹; v (10 uM) (CYP 1A2; turnover rate at 10 uM substrate): 9.95 min⁻¹; signal to background versus prior commercially available substrate (CYP2C19 [6]): superior signal to background |
| COc1ccc(COc2ccc3c(C(F)(F)F)cc(=O)oc3c2)cc1 [MOBFC] | Michaelis-Menten | 0.0214 min⁻¹ and 0.02 min⁻¹ | 0.3453 min⁻¹ and 0.35 min⁻¹ |  |  |  | Michaelis-Menten | 0.02 min⁻¹ | 0.188 min⁻¹ and 0.19 min⁻¹ |  | kcat (CYP2C9 [3]; — = too low to quantify): 0.005 s⁻¹; type of kinetics (CYP2D6 [7]): Michaelis-Menten; v (1.25 uM) (CYP2D6 [7]; [11]): 0.09 min⁻¹; v (10 uM) (CYP2D6 [7]; [12]): 0.49 min⁻¹; signal to background versus prior commercially available substrate (CYP2D6 [8]): superior signal to background; stability of substrate stock solutions [9]: stable |
| CCCCCCCCOCOc1ccc2nc3ccc(=O)cc-3oc2c1 [OOMR, Octyloxymethylresorufin] |  | 0.323 min⁻¹ | 0.601 min⁻¹ |  | 0.1 min⁻¹ | 0.13 min⁻¹ |  | 0.137 min⁻¹ | 0.31 min⁻¹ | superior signal to background |  |
| Clc1ccc(COC(Cn2ccnc2)c2ccc(Cl)cc2Cl)c(Cl)c1 (centres unmarked) [miconazole] |  |  |  |  |  |  |  |  |  |  | inhibition at 1 h, 10 µM (CYP3A4 [10]): ~100% |
